These results are taken from patent US20240002391A1, “4-ALKOXYPYRROLO[2,1-F][1,2,4]TRIAZINES AND PREPARATION AND USES THEREOF” (BioSplice Therapeutics, Inc., priority 2022, published 2024).

For this assay, the target named is recombinant DYRK1A kinase (Homo sapiens (Human), UniProt Q13627). Briefly: DYRK1A kinase assay (Ser/Thr 18 peptide Z-lyte FRET). The class given is biochemical. Conditions: DYRK1A kinase activity, Z-lyte Ser/Thr 18 peptide, 15 μM ATP; method text calls the value IC50; read-out: EC50 (the source's name). Summed up:
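Steps: combine 0.25 μg/mL kinase, 15 μM ATP and 4 μM peptide with test compound; incubate 1 h at room temperature; add diluted development reagent for another hour; read coumarin and fluorescein emission at Ex 400. The emission ratio yields percent phosphorylation, from which IC50 is derived.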

As for `COc1nc(N[C@H]2CC[C@](C)(O)CC2)nn2ccc(-c3ccc4nnn(CC(F)(F)F)c4c3)c12` [Compound 911, (1r,4r)-4-((4-Methoxy-5-(1-(2,2,2-trifluoroethyl)-1H-benzo[d][1,2,3]triazol-6-yl)pyrrolo[2,1-f][1,2,4]triazin-2-yl)amino)-1-methylcyclohexan-1-ol], the IC50 turned out to be 2.1 nM.
For `COc1nc(N[C@H]2CCN(CC(C)(C)O)C[C@H]2F)nn2ccc(-c3ccc4ncccc4c3)c12` [Compound 1045, 1-((3R,4S)-3-Fluoro-4-((4-methoxy-5-(quinolin-6-yl)pyrrolo[2,1-f][1,2,4]triazin-2-yl)amino)piperidin-1-yl)-2-methylpropan-2-ol] the value was 4.5 nM; for `COc1nc(NC2CCN(C(C)=O)CC2)nn2ccc(-c3ccn4nccc4c3)c12` [Compound 27, 1-(4-((4-Methoxy-5-(pyrazolo[1,5-a]pyridin-5-yl)pyrrolo[2,1-f][1,2,4]triazin-2-yl)amino)piperidin-1-yl)ethan-1-one], 9960 nM.
`COc1nc(N[C@H]2CCN(S(C)(=O)=O)C[C@H]2F)nn2ccc(-c3ccc4nnn(CC(F)F)c4c3)c12` [Compound 1145, 5-(1-(2,2-Difluoroethyl)-1H-benzo[d][1,2,3]triazol-6-yl)-N-((3R,4S)-3-fluoro-1-(methylsulfonyl)piperidin-4-yl)-4-methoxypyrrolo[2,1-f][1,2,4]triazin-2-amine]: the IC50 was found to be 1.4 nM.
The figure for `COc1nc(NC2CCN(C(C)=O)CC2)nn2ccc(-c3ccc4nc(C)n(CC(F)F)c4c3)c12` [Compound 122, 1-(4-((5-(1-(2,2-Difluoroethyl)-2-methyl-1H-benzo[d]imidazol-6-yl)-4-methoxypyrrolo[2,1-f]1[1,2,4]triazin-2-yl)amino)piperidin-1-yl)ethan-1-one] is 1.6 nM.
For `COc1nc(N[C@H]2CCN(C3COC3)C[C@H]2F)nn2ccc(-c3cnc4nccn4c3)c12` [Compound 270, N-((3R,4S)-3-Fluoro-1-(oxetan-3-yl)piperidin-4-yl)-5-(imidazo[1,2-a]pyrimidin-6-yl)-4-methoxypyrrolo[2,1-f][1,2,4]triazin-2-amine] the value was 5.1 nM; for `COc1nc(N[C@H]2CCN(C)C[C@H]2F)nn2ccc(-c3ccc4nc(C)n(CC(F)F)c4c3)c12` [Compound 127, 5-(1-(2,2-Difluoroethyl)-2-methyl-1H-benzo[d]imidazol-6-yl)-N-((3R,4S)-3-fluoro-1-methylpiperidin-4-yl)-4-methoxypyrrolo[2,1-f][1,2,4]triazin-2-amine], 2.2 nM; for `COc1nc(N[C@@H]2CCN(C(C)=O)CC2(F)F)nn2ccc(-c3ccc4nnn(CCF)c4c3)c12` [Compound 669, (R)-1-(3,3-Difluoro-4-((5-(1-(2-fluoroethyl)-1H-benzo[d][1,2,3]triazol-6-yl)-4-methoxypyrrolo[2,1-f][1,2,4]triazin-2-yl)amino)piperidin-1-yl)ethan-1-one], 1.6 nM.
The figure for `CCn1nnc2ccc(-c3ccn4nc(N[C@H]5CCN(C6COC6)C[C@H]5F)nc(OC)c34)cc21` [Compound 646, 5-(1-Ethyl-1H-benzo[d][1,2,3]triazol-6-yl)-N-((3R,4S)-3-fluoro-1-(oxetan-3-yl)piperidin-4-yl)-4-methoxypyrrolo[2,1-f][1,2,4]triazin-2-amine] is 3.4 nM; for `COc1nc(NC2CCC3(CC2)COC3)nn2ccc(-c3ccc4nccnc4c3)c12` [Compound 390, 4-Methoxy-5-(quinoxalin-6-yl)-N-(2-oxaspiro[3.5]nonan-7-yl)pyrrolo[2,1-f][1,2,4]triazin-2-amine] it is 3 nM; for `COc1nc(N[C@H]2CCN(C(C)=O)C[C@H]2F)nn2ccc(-c3ccc4nnn(CC(F)F)c4c3)c12` [Compound 771, 1-((3R,4S)-4-((5-(1-(2,2-Difluoroethyl)-1H-benzo[d][1,2,3]triazol-6-yl)-4-methoxypyrrolo[2,1-f][1,2,4]triazin-2-yl)amino)-3-fluoropiperidin-1-yl)ethan-1-one] it is 0.1 nM.
In the case of `COc1nc(N[C@H]2CCN(C(C)=O)C[C@H]2F)nn2cc(F)c(-c3ccc4nnn(CC(F)F)c4c3)c12` [Compound 856, 1-((3R,4S)-4-((5-(1-(2,2-Difluoroethyl)-1H-benzo[d][1,2,3]triazol-6-yl)-6-fluoro-4-methoxypyrrolo[2,1-f][1,2,4]triazin-2-yl)amino)-3-fluoropiperidin-1-yl)ethan-1-one], the IC50 worked out at 1.9 nM.
For `CN1CC[C@@H](Nc2nc(OC3COC3)c3c(-c4ccc5ncccc5c4)ccn3n2)C(F)(F)C1` [Compound 1091, (R)—N-(3,3-Difluoro-1-methylpiperidin-4-yl)-4-(oxetan-3-yloxy)-5-(quinolin-6-yl)pyrrolo[2,1-f][1,2,4]triazin-2-amine] the value was 1.8 nM; for `COc1nc(N[C@H]2CCN(CCO)C[C@H]2F)nn2ccc(-c3ccc4nnn(CC(F)F)c4c3)c12` [Compound 756, 2-((3R,4S)-4-((5-(1-(2,2-Difluoroethyl)-1H-benzo[d][1,2,3]triazol-6-yl)-4-methoxypyrrolo[2,1-f][1,2,4]triazin-2-yl)amino)-3-fluoropiperidin-1-yl)ethan-1-ol], 1.4 nM.
For `COc1nc(N[C@@H]2CN(C3COC3)C[C@@H]2F)nn2ccc(-c3cnc4nccn4c3)c12` [Compound 266, N-((3R,4S)-4-Fluoro-1-(oxetan-3-yl)pyrrolidin-3-yl)-5-(imidazo[1,2-a]pyrimidin-6-yl)-4-methoxypyrrolo[2,1-f][1,2,4]triazin-2-amine] the value was 2.9 nM; for `C[C@]1(O)C[C@H](Nc2nc(OC3COC3)c3c(-c4ccc5nccnc5c4)ccn3n2)C1` [Compound 391, cis-1-Methyl-3-((4-(oxetan-3-yloxy)-5-(quinoxalin-6-yl)pyrrolo[2,1-f][1,2,4]triazin-2-yl)amino)cyclobutan-1-ol], 7.2 nM.
Consider `COc1nc(NC23CCC(O)(CC2)C3)nn2ccc(-c3ccc4ncnn4c3)c12` [Compound 582, 4-((5-([1,2,4]Triazolo[1,5-a]pyridin-6-yl)-4-methoxypyrrolo[2,1-f][1,2,4]triazin-2-yl)amino)bicyclo[2.2.1]heptan-1-ol], for which the IC50 was 40.9 nM.
The figure for `COc1nc(N[C@H]2C[C@@](C)(O)C2)nn2ccc(-c3cc4ncccc4[nH]3)c12` [Compound 277, cis-3-((4-Methoxy-5-(1H-pyrrolo[3,2-b]pyridin-2-yl)pyrrolo[2,1-f][1,2,4]triazin-2-yl)amino)-1-methylcyclobutan-1-ol] is 63.3 nM; for `COc1nc(NC2CC3CC3C2)nn2ccc(-c3cnc4nccn4c3)c12` (stereo not shown) [Compound 976, N-(Bicyclo[3.1.0]hexan-3-yl)-5-(imidazo[1,2-a]pyrimidin-6-yl)-4-methoxypyrrolo[2,1-f][1,2,4]triazin-2-amine] it is 2.5 nM; for `COc1nc(N[C@@H]2CCN(C3COC3)CC2(F)F)nn2cc(F)c(-c3ccc4ncccc4c3)c12` [Compound 1062, (R)—N-(3,3-Difluoro-1-(oxetan-3-yl)piperidin-4-yl)-6-fluoro-4-methoxy-5-(quinolin-6-yl)pyrrolo[2,1-f][1,2,4]triazin-2-amine] it is 3.7 nM.
The figure for `COc1nc(N[C@H]2CC[C@@H](C(C)(C)O)CC2)nn2ccc(-c3ccc4nccnc4c3)c12` [Compound 341, 2-(cis-4-((4-methoxy-5-(quinoxalin-6-yl)pyrrolo[2,1-f][1,2,4]triazin-2-yl)amino)cyclohexyl)propan-2-ol] is 9.3 nM; for `COc1nc(N[C@@H]2CCN(C3COC3)CC2(F)F)nn2ccc(-c3ccc4nccnc4c3)c12` [Compound 379, (R)—N-(3,3-Difluoro-1-(oxetan-3-yl)piperidin-4-yl)-4-methoxy-5-(quinoxalin-6-yl)pyrrolo[2,1-f][1,2,4]triazin-2-amine] it is 3.3 nM; for `COc1nc(N[C@@H]2CCN(C(C)=O)CC2(F)F)nn2ccc(-c3ccc4ncn(CC(F)F)c4c3)c12` [Compound 1140, (R)-1-(4-((5-(1-(2,2-Difluoroethyl)-1H-benzo[d]imidazol-6-yl)-4-methoxypyrrolo[2,1-f][1,2,4]triazin-2-yl)amino)-3,3-difluoropiperidin-1-yl)ethan-1-one] it is 1.3 nM.
Consider `COc1nc(NCC2(C)COC2)nn2ccc(-c3ccc4nnn(CC(F)F)c4c3)c12` [Compound 1144, 5-(1-(2,2-Difluoroethyl)-1H-benzo[d][1,2,3]triazol-6-yl)-4-methoxy-N-((3-methyloxetan-3-yl)methyl)pyrrolo[2,1-f][1,2,4]triazin-2-amine], for which the IC50 was found to be 2 nM.
The figure for `COc1nc(N[C@@H]2CCN(CCF)C[C@@H]2F)nn2ccc(-c3ccc4nc(C)n(CC(F)F)c4c3)c12` [Compound 129, 5-(1-(2,2-Difluoroethyl)-2-methyl-1H-benzo[d]imidazol-6-yl)-N-((3S,4R)-3-fluoro-1-(2-fluoroethyl)piperidin-4-yl)-4-methoxypyrrolo[2,1-f][1,2,4]triazin-2-amine] is 2.6 nM; for `COc1nc(N[C@H]2CC[C@](C)(O)CC2)nn2cc(F)c(-c3ccc4ncnn4c3)c12` [Compound 589, (1r,4r)-4-((5-([1,2,4]Triazolo[1,5-a]pyridin-6-yl)-6-fluoro-4-methoxypyrrolo-[2,1-f][1,2,4]triazin-2-yl)amino)-1-methylcyclohexan-1-ol] it is 0.9 nM.
The figure for `COc1nc(N[C@@H](C)c2ccccn2)nn2ccc(-c3ccn4nccc4c3)c12` [Compound 393, (S)-4-Methoxy-5-(pyrazolo[1,5-a]pyridin-5-yl)-N-(1-(pyridin-2-yl)ethyl)pyrrolo[2,1-f][1,2,4]triazin-2-amine] is 178 nM.
The figure for `COc1nc(NC2CCC3(CC2)CN(C(C)=O)C3)nn2ccc(-c3ccc4nccnc4c3)c12` [Compound 389, 1-(7-((4-Methoxy-5-(quinoxalin-6-yl)pyrrolo[2,1-f][1,2,4]triazin-2-yl)amino)-2-azaspiro[3.5]nonan-2-yl)ethan-1-one] is 1.3 nM.
